# Residues, ends and D or L forms follow the SMILES beside them.
# Assays:
# [1] = system: WT mice; assay: Sterile eCIRP-induced inflammation by rmCIRP injection in mice; format: in vivo, mouse; details: rmCIRP 5 mg/kg co-incubated 30 min with test substance, r.o. injection, 4 hours, vs eCIRP alone
# Method: FIG. 5A-5B. eCIRP-induced inflammation is attenuated by MOP3. WT mice were treated according to respective groups: PBS (volume equivalent), rmCIRP (5 mg/kg), or MOP3 (10 μg/kg) co-incubated with rmCIRP (5 mg/kg) for 30 mins prior to r.o. injection. After 4 hours, serum was measured for IL-6 (A) and TNFα (B) levels by ELISA. All experiments were performed 3 times, and all data were used for analysis (N=7-10). Data are expressed as mean±SEM and compared by one-way ANOVA and SNK test. *p<0.05 vs. PBS, #p<0.05 vs. eCIRP.
# Adult (8-12 weeks) male, C57BL/6 wild-type (WT) mice (20-30 g) were purchased from Charles River Laboratories. […] For the design of in vivo models, sample size calculation was driven by variability, effect size, significance level and power as determined through performance of early feasibility and optimization pilot studies. […]
# The mouse macrophage cell culture supernatants were analyzed for cytokine levels using ELISA kits (BD Biosciences, CA). […] TNF-α and IL-6 levels were measured in cell supernatants by ELISA in accordance with respective manufacturers' instructions (BD Biosciences, CA). Blood was collected, centrifuged at 4,000 RPM for 10 minutes, and sera was separated and analyzed for cytokine levels using ELISA kits (BD Biosciences, CA). TNF-α and IL-6 levels in the serum were measured by ELISA in accordance with respective manufacturers' instructions. […]
# [2] = system: WT mice; assay: CLP-induced polymicrobial sepsis, 20 hours; format: in vivo, mouse; details: vs vehicle
# Method: FIG. 6A-6M: MOP3 ameliorates inflammation, lung injury, and improves survival in sepsis. WT mice subjected to CLP-induced sepsis with MOP3 treatment (10 μg/kg) or vehicle (volume-equivalent). After 20 hours, blood and lung tissue collected for respective analyses. (A-C) Serum was analyzed for systemic eCIRP, IL-6, and TNFα levels by ELISA. (D-F) Serum was analyzed for ALT, AST, and LDH by calorimetric assays. (G-I) Lung tissue was frozen and mRNA expression of IL-6, TNFα, and IL-1β was measured by PCR and MPO by calorimetric assay. (J) Lung tissue was frozen and analyzed for MPO levels by calorimetric assay. (K) Lungs were sectioned, imaged for histologic injury by H&E staining, and performed lung injury scoring. (L) Sectioned lungs were stained for TUNEL positive cells and cell counts were quantified. All experiments were performed 3 times, and all data were used for analysis (N=6-18). Data are expressed as mean±SEM and compared by one-way ANOVA and SNK test. *p<0.05 vs. sham, #p<0.05 vs. CLP vehicle. (M) WT mice subjected to CLP-induced sepsis with MOP3 treatment (10 μg/kg) or vehicle (volume equivalent) and monitored for 10 days for humane endpoints, and differences in survival were determined (N=17 per group). *p<0.05 vs. CLP vehicle.
# Adult (8-12 weeks) male, C57BL/6 wild-type (WT) mice (20-30 g) were purchased from Charles River Laboratories. MFG-E8 knockout mice (MFG-E8^−/−) were originally obtained from Dr. Shigekazu Nagata, Osaka University of Japan, and bred following our Institutional Animal Care and Use Committee (IACUC) policies. Age-matched, healthy mice were used in all experiments. Animals were randomly assigned to sham, vehicle, or treatment groups. Concerted effort was made to ensure that a limited number of animals were used in each experiment. All experiments were previously approved by IACUC of the Feinstein Institutes for Medical Research (Manhasset, NY) and were performed in accordance with the guidance for the use of experimental animals by the National Institutes of Health (Bethesda, MD). For the design of in vivo models, sample size calculation was driven by variability, effect size, significance level and power as determined through performance of early feasibility and optimization pilot studies.
# Sepsis was induced in mice by cecal ligation and puncture (CLP) as previously described (4). Briefly, mice were anesthetized with inhaled isoflurane to achieve adequate anesthesia. After placement in the supine position, the abdomen was shaved and disinfected. A 2-cm midline laparotomy was created. The cecum was located and eviscerated from the abdomen and then ligated with a 4-0 silk suture approximately 1 cm proximal from the terminal cecal extremity. For short-term experiments using this polymicrobial sepsis model, the cecum was punctured twice (through and through) with a 22G needle. Careful extraction of a consistent, small amount of cecal content was extruded, and the cecum along with cecal content was returned to the peritoneal cavity. […] All comparative surgeries were performed on the same day to reduce severity-variability. All short-term experiments were repeated at least three-times to ensure reproducibility of relative markers of inflammation and injury.
# For respective experiments, either WT or MFG-E8 knockout mice were subjected to CLP. For treatment experiments, mice were randomly assigned to either vehicle or treatment groups. MOP3 ([…]) was given via retroorbital (r.o.) injection at time of surgery, immediately following abdominal closure. Vehicle groups received an equivalent volume of normal saline via r.o. injection. For resuscitation, mice additionally received subcutaneous injection of 500 μL of normal saline immediately after abdominal closure.
# The mouse macrophage cell culture supernatants were analyzed for cytokine levels using ELISA kits (BD Biosciences, CA). […]
smiles,measurement,setting,value
"CC(C)C[C@H](NC(=O)[C@H](CC(N)=O)NC(=O)[C@H](Cc1c[nH]c2ccccc12)NC(=O)[C@@H](NC(=O)[C@H](CCCCN)NC(=O)[C@H](Cc1ccc(O)cc1)NC(=O)[C@H](CO)NC(=O)[C@H](CO)NC(=O)[C@H](CO)NC(=O)[C@H](CC(=O)O)NC(=O)CNC(=O)[C@@H](N)CCCNC(=N)N)[C@@H](C)O)C(=O)N[C@@H](CCCNC(=N)N)C(=O)N[C@@H](C)C(=O)N[C@@H](Cc1ccccc1)C(=O)NCC(=O)N[C@@H](Cc1c[nH]c2ccccc12)C(=O)N[C@@H](Cc1ccc(O)cc1)C(=O)O [MOP3, RGDSSSYKTWNLRAFGWY] (H-RGDSSSYKTWNLRAFGWY-OH; N-terminus and C-terminus assumed)",serum IL-6 levels,[1],reduced systemic levels
same,serum TNFα levels,[1],reduced systemic levels
same,lung tissue mRNA levels of IL-1β,[2]; PCR,reduced
same,lung tissue mRNA levels of IL-6,[2]; PCR,reduced
same,lung tissue mRNA levels of TNFα,[2]; PCR,reduced
same,serum levels of eCIRP,[2]; one-time intravenous MOP3 at surgical closure,significantly reduced
same,systemic IL-6,[2]; serum,attenuated systemic inflammation
same,systemic TNFα,[2]; serum,attenuated systemic inflammation
same,apoptotic cells in lungs (TUNEL),[2],significantly less apoptotic cells
same,lung MPO levels,[2],decreased
same,"lung histologic architecture (H&E, lung injury)",[2],significantly preserved histologic architecture
same,serum ALT levels,[2],reduced
same,serum AST levels,[2],reduced
same,serum LDH levels,[2],reduced
